Source: EPA's ToxRefDB 2

Assays:
[1] = test system: rat; conditions: Multigenerational reproductive toxicity study, sprague dawley, Oral, Feed, dose end: 2 generation
[2] = test system: rat; conditions: Combined chronic toxicity/carcinogenicity, fischer, Oral, Feed, dose end: 24 month
[3] = test system: mouse; conditions: Carcinogenicity, cd1, Oral, Feed, dose end: 87 week, group: systemic
[4] = test system: rabbit; conditions: Prenatal developmental toxicity study, chinchilla, Oral, Gavage/Intubation, dose end: 18 GD
[5] = test system: rat; conditions: Combined chronic toxicity/carcinogenicity, sprague dawley, Oral, Feed, dose end: 24 month, group: systemic
[6] = test system: rat; conditions: Chronic toxicity, Sprague-Dawley, Oral, Feed, dose end: 104 week, group: systemic
[7] = test system: dog; conditions: Subchronic oral toxicity in nonrodent, beagle, Feed, dose end: 26 week, group: systemic, systemic / in life observation / clinical signs / chewing of extremities + systemic / in life observation / clinical signs / muscle …
[8] = test system: mouse; conditions: Combined chronic toxicity/carcinogenicity, other, Oral, Feed, dose end: 91 week, group: systemic
[9] = test system: mouse; conditions: Combined chronic toxicity/carcinogenicity, cd1, Oral, Feed, dose end: 78 week, group: systemic
[10] = test system: dog; conditions: Chronic toxicity, beagle, Oral, Feed, dose end: 52 week, group: systemic
[11] = test system: rat; conditions: Combined chronic toxicity/carcinogenicity; sprague dawley; Oral; Feed; dose end: 24 month; group: systemic; systemic / in life observation / clinical signs / urine staining - perineum
[12] = group: cholinesterase, cholinesterase / cholinesterase / cholinesterase / plasma cholinesterase (che)
[13] = group: offspring, developmental / offspring survival late / lactation index / lactation index
[14] = group: offspring, developmental / offspring survival late / lactation index / lactation index + systemic / in life observation / body weight / offspring (pup…
[15] = group: parental, systemic / in life observation / body weight / body weight
[16] = group: parental, systemic / organ weight / ovary / relative to body weight
[17] = group: cholinesterase, cholinesterase / cholinesterase / cholinesterase / brain cholinesterase (che) + cholinesterase / cholinesterase / cholinesterase / …
[18] = group: systemic, systemic / hematology / mean corpuscular (cell) volume (mcv) / mean corpuscular (cell) volume (mcv) + systemic / in life observation / body …
[19] = systemic / organ weight / brain / absolute
[20] = systemic / organ weight / brain / absolute + systemic / in life observation / body weight / body weight + systemic / in life observation / …
[21] = group: developmental, developmental / developmental malformation / bone / absent + developmental / developmental malformation / bone / fused + developmental / …
[22] = group: maternal, systemic / in life observation / body weight / body weight gain + systemic / in life observation / clinical signs / ataxia + systemic / in …
[23] = systemic / in life observation / body weight / body weight
[24] = systemic / in life observation / body weight / body weight + systemic / clinical chemistry / alpha-2 globulin / alpha-2 globulin + systemic…
[25] = systemic / in life observation / body weight / body weight + systemic / organ weight / brain / relative to body weight + systemic / organ …
[26] = systemic / pathology microscopic / liver / granuloma + systemic / pathology microscopic / lymph node / granuloma + systemic / clinical …
[27] = systemic / pathology microscopic / liver / granuloma + systemic / pathology microscopic / lymph node / granuloma + systemic / hematology / …
[28] = systemic / in life observation / body weight / body weight gain + systemic / in life observation / body weight / body weight + systemic / …
[29] = systemic / clinical chemistry / alanine aminotransferase (alt/sgpt) / alanine aminotransferase (alt/sgpt) + systemic / clinical chemistry / …
[30] = systemic / organ weight / liver / absolute

## CCOP(=O)(NC(C)C)Oc1ccc(SC)c(C)c1 (stereo not given) [Fenamiphos]
[1]; [12]
  LEL: 0.19 mg/kg/day
  LOAEL: 0.19 mg/kg/day
  NEL: < 0.19 mg/kg/day
  NOAEL: < 0.19 mg/kg/day
[1]; [13]
  LEL: 0.65 mg/kg/day
  LOAEL: 0.65 mg/kg/day
[1]; [14]
  NEL: 0.17 mg/kg/day
  NOAEL: 0.17 mg/kg/day
[1]; [15]
  LOAEL: > 2.94 mg/kg/day
  NOAEL: ≥ 2.94 mg/kg/day
[1]; [16]
  LEL: 0.2 mg/kg/day
  NEL: < 0.2 mg/kg/day
[2]; [17]
  LEL: 0.098 mg/kg/day
  LOAEL: 0.098 mg/kg/day
  NEL: < 0.098 mg/kg/day
  NOAEL: < 0.098 mg/kg/day
[2]; [18]
  LEL: 2.45 mg/kg/day
  LOAEL: > 2.45 mg/kg/day
  NEL: 0.464 mg/kg/day
  NOAEL: ≥ 2.45 mg/kg/day
[3]; [19]
  LEL: 0.3 mg/kg/day
  NEL: < 0.3 mg/kg/day
[3]; [20]
  LOAEL: > 7.5 mg/kg/day
  NOAEL: ≥ 7.5 mg/kg/day
[4]; [21]
  LEL: 2.5 mg/kg/day
  LOAEL: 2.5 mg/kg/day
  NEL: 0.5 mg/kg/day
  NOAEL: 0.5 mg/kg/day
[4]; [22]
  LEL: 2.5 mg/kg/day
  LOAEL: 2.5 mg/kg/day
  NEL: 0.5 mg/kg/day
  NOAEL: 0.5 mg/kg/day

## CC(C)[C@@H](C(=O)O[C@@H](C#N)c1cccc(Oc2ccccc2)c1)c1ccc(Cl)cc1 [Fenvalerate]
[5]; [23]
  LEL: 1.25 mg/kg/day
[5]; systemic / in life observation / body weight / body weight + systemic / clinical chemistry / alpha-2 globulin / alpha-2 globulin
  NEL: 0.25 mg/kg/day
[5]; [24]
  LOAEL: > 25 mg/kg/day
  NOAEL: ≥ 25 mg/kg/day
[6]; [23]
  LOAEL: 50 mg/kg/day
  NOAEL: < 50 mg/kg/day
[6]; [25]
  LEL: 50 mg/kg/day
  NEL: < 50 mg/kg/day
[7]
  LEL: 6.25 mg/kg/day
  LOAEL: 6.25 mg/kg/day
  NEL: < 6.25 mg/kg/day
  NOAEL: < 6.25 mg/kg/day
[8]; [26]
  NEL: 4.5 mg/kg/day
  NOAEL: 4.5 mg/kg/day
[8]; [27]
  LEL: 15 mg/kg/day
  LOAEL: 15 mg/kg/day

## CC(C)C1(C)N=C(c2nc3ccccc3cc2C(=O)O)NC1=O (stereo not given) [Imazaquin]
[9]; systemic / in life observation / body weight / body weight gain
  LOAEL: 600 mg/kg/day
[9]; [28]
  LEL: 600 mg/kg/day
  NEL: 150 mg/kg/day
  NOAEL: 150 mg/kg/day
[10]; [29]
  LOAEL: 125 mg/kg/day
  NOAEL: 25 mg/kg/day
[10]; [30]
  LEL: 5 mg/kg/day
  NEL: < 5 mg/kg/day
[11]
  LEL: 500 mg/kg/day
  LOAEL: > 500 mg/kg/day
  NEL: 250 mg/kg/day
  NOAEL: ≥ 500 mg/kg/day
